Data as given in patent publication US11433053B2, “LSD1 inhibitor and preparation method and application thereof” (CSPC ZHONGQI PHARMACEUTICAL TECHNOLOGY (SHIJIAZHUANG) CO., …, priority 2017, dated 2022).

The compounds below were run against human LSD1 (Homo sapiens (Human), UniProt O60341) (assay: Evaluation of enzyme activity: LSD1 fluorescence coupling enzyme assay (HRP/Amplex Red)). Details: human LSD1, histone H3(1-21)K4me2 peptide 10 μM, 30 min pre-incubation.
Type: biochemical
Procedure: The purpose of this test is to test the in vitro inhibitory activities of the compounds against LSD1. The enzyme used in this experiment was human LSD1, and the standard substrate was histone H3(1-21)K4me2 peptide (10 μM). HCI-2509 (SP2509) was used as reference compound, and the fluorescence coupling enzyme assay was employed. The production of FAD-dependent H2O2 as a result of demethylase activity of LSD1 was measured by coupling with HRP and Amplex Red. Compounds as well as control compound HCl-2509 were tested in 10-dose IC50 mode with a 3-fold serial dilution in duplicate starting at 10 μm. All compounds were pre-incubated 30 mins with enzyme before added substrate to start reaction. Fluorescence measurement: Ex/Em=535/590 by EnVision.
The test compound's inhibitory activities against LSD11 was classified as: + for IC50≤50 nM; ++ for IC50>50 nM and ≤100 nM; +++ for IC50>100 nM and ≤500 nM, and the results are shown in Table 1.

Q: Which IC50 does the source give for `COC(=O)c1ccc(CN2CCC(c3nc(C4(CN[C@H]5CC5c5ccccc5)CC4)no3)CC2)cc1` (single isomer, unassigned) [Example 165] here?
A: 100 to 500 nM

Q: `CC(C)(C)n1nnc(C2(CN[C@H]3C[C@@H]3c3ccccc3)CC2)n1` [Example 3] was tested. Which IC50 did it give?
A: 50 to 100 nM

Q: `CN(C)CC1(CN[C@H]2C[C@@H]2c2ccccc2)CC1` [Example 5] was tested. Which IC50 did it give?
A: 50 to 100 nM

Q: Which IC50 does the source give for `CCN(CC)CC1(CN[C@H]2CC2c2ccccc2)CC1` (some centres unmarked) [Example 7] here?
A: 100 to 500 nM

Q: `Fc1ccccc1CNCC1(CN[C@H]2CC2c2ccccc2)CC1` (some centres unmarked) [Example 10] was tested. Which IC50 did it give?
A: ≤ 50 nM

Q: How did the IC50 turn out when `c1ccc(C2C[C@@H]2NCC2(CNCc3ccc[nH]3)CC2)cc1` (some centres unmarked) [Example 11] was run?
A: ≤ 50 nM

Q: `c1ccc([C@H]2C[C@@H]2NCC2(CNCc3cnc[nH]3)CC2)cc1` [Example 12] was tested. Which IC50 did it give?
A: 50 to 100 nM

Q: For `c1ccc(C2C[C@@H]2NCC2(CNCC3CCNC3)CC2)cc1` (some centres unmarked) [Example 13], which IC50 is on record?
A: ≤ 50 nM

Q: How did the IC50 turn out when `CCn1ncnc1CNCC1(CN[C@H]2C[C@@H]2c2ccccc2)CC1` [Example 14] was run?
A: 100 to 500 nM

Q: For `FC(F)(F)c1ccc(CNCC2(CN[C@H]3C[C@@H]3c3ccccc3)CC2)cn1` [Example 15], which IC50 is on record?
A: 50 to 100 nM

Q: `c1ccc([C@H]2C[C@@H]2NCC2(CNCc3nccs3)CC2)cc1` [Example 16] was tested. Which IC50 did it give?
A: 100 to 500 nM

Q: For `c1ccc([C@H]2C[C@@H]2NCC2(CNCc3cnc4n3CCC4)CC2)cc1` [Example 17], which IC50 is on record?
A: 50 to 100 nM

Q: With `Clc1ccc2nc(C3(CN[C@H]4CC4c4ccccc4)CC3)oc2c1` (some centres unmarked) [Example 46] as the compound, how does the IC50 read?
A: ≤ 50 nM

Q: For `Clc1ccc2oc(C3(CN[C@H]4C[C@@H]4c4ccccc4)CC3)nc2c1` [Example 47], which IC50 is on record?
A: 50 to 100 nM

Q: With `N#Cc1ccc(CNC2(CN[C@H]3CC3c3ccccc3)CCC2)cc1` (some centres unmarked) [Example 48] as the compound, how does the IC50 read?
A: ≤ 50 nM

Q: `Fc1ccc(-c2nc(C3(CN[C@H]4CC4c4ccccc4)CC3)no2)cc1` (some centres unmarked) [Example 63] was tested. Which IC50 did it give?
A: ≤ 50 nM

Q: How did the IC50 turn out when `c1ccc(C2C[C@@H]2NCC2(c3noc4ccccc34)CC2)cc1` (some centres unmarked) [Example 71] was run?
A: ≤ 50 nM

Q: `c1ccc(C2C[C@@H]2NCC2(c3noc4ccccc34)CCC2)cc1` (some centres unmarked) [Example 72] was tested. Which IC50 did it give?
A: ≤ 50 nM

Q: How did the IC50 turn out when `c1ccc([C@H]2C[C@@H]2NCC2(c3nc4ccccc4o3)CC2)cc1` [Example 76] was run?
A: 50 to 100 nM

Q: With `O=C(O)c1ccc(NCC2(CN[C@H]3C[C@@H]3c3ccccc3)CCC2)nc1` [Example 84] as the compound, how does the IC50 read?
A: 100 to 500 nM

Q: `FC1CC(CN[C@H]2CC2c2ccccc2)(c2cccnc2)C1` (some centres unmarked) [Example 85] was tested. Which IC50 did it give?
A: ≤ 50 nM

Q: Which IC50 does the source give for `OC1CC(CN[C@H]2CC2c2ccccc2)(c2cccnc2)C1` (some centres unmarked) [Example 86] here?
A: ≤ 50 nM

Q: For `COc1ccccc1-c1nc(C2(CN[C@H]3CC3c3ccccc3)CCC2)no1` (some centres unmarked) [Example 90], which IC50 is on record?
A: ≤ 50 nM

Q: `N#Cc1ccccc1-c1nc(C2(CN[C@H]3CC3c3ccccc3)CCC2)no1` (some centres unmarked) [Example 91] was tested. Which IC50 did it give?
A: ≤ 50 nM

Q: `N#Cc1cccc(-c2nc(C3(CN[C@H]4CC4c4ccccc4)CCC3)no2)c1` (some centres unmarked) [Example 92] was tested. Which IC50 did it give?
A: ≤ 50 nM

Q: With `FC1(F)Oc2ccc(-c3nc(C4(CN[C@H]5CC5c5ccccc5)CCC4)no3)cc2O1` (some centres unmarked) [Example 93] as the compound, how does the IC50 read?
A: ≤ 50 nM

Q: Which IC50 does the source give for `COc1ccc2nc(-c3nc(C4(CN[C@H]5CC5c5ccccc5)CCC4)no3)sc2c1` (some centres unmarked) [Example 94] here?
A: ≤ 50 nM

Q: How did the IC50 turn out when `N#Cc1ccc(C(=O)NC2(CN[C@H]3CC3c3ccccc3)CCC2)cc1` (some centres unmarked) [Example 97] was run?
A: ≤ 50 nM

Q: For `CC1CCN(CC2(CN[C@H]3C[C@@H]3c3ccccc3)CC2)C1` (some centres unmarked) [Example 98], which IC50 is on record?
A: 50 to 100 nM

Q: `O=C(O)c1ccc2c(c1)CN(CC1(CN[C@H]3C[C@@H]3c3ccccc3)CC1)C2` [Example 99] was tested. Which IC50 did it give?
A: 100 to 500 nM

Q: Which IC50 does the source give for `O=C(O)c1ccc(-c2nc(C3(CN[C@H]4CC4c4ccccc4)CC3)no2)cn1` (some centres unmarked) [Example 102] here?
A: 100 to 500 nM

Q: For `O=C(O)c1ccc(N2CCC(c3nc(C4(CN[C@H]5C[C@@H]5c5ccccc5)CC4)no3)CC2)cc1` [Example 103], which IC50 is on record?
A: 100 to 500 nM

Q: How did the IC50 turn out when `O=C(O)c1ccc(N2CCC(c3nc(C4(CN[C@H]5CC5c5ccccc5)CC4)no3)CC2)cn1` (some centres unmarked) [Example 104] was run?
A: ≤ 50 nM

Q: Which IC50 does the source give for `CC(=O)N1CCC(c2nc(C3(CN[C@H]4C[C@@H]4c4ccccc4)CC3)no2)CC1` [Example 105] here?
A: 50 to 100 nM

Q: Which IC50 does the source give for `CS(=O)(=O)n1cc2c(n1)CN(CC1(CN[C@H]3C[C@@H]3c3ccccc3)CC1)C2` [Example 106] here?
A: 100 to 500 nM
